# Values quoted from earlier work, collected in patent US11583521B2, “Long-acting injection dosage form of beta 3 adrenoreceptor agonists” (Jubilant Pharma Holdings Inc., priority 2020, dated 2023).
# Experiments:
# [1] = neutral to acidic pH
# [2] = presence of food in the GI tract
structure (smiles),measurement,setting,value
"Nc1nc(CC(=O)Nc2ccc(CCNC[C@H](O)c3ccccc3)cc2)cs1 [Mirabegron, (R)-2-(2-aminothiazol-4-yl)-4′-{2-[(2-hydroxy-2 phenylethyl)amino]ethyl}acetanilide]",solubility in water,[1],soluble in water between neutral to acidic pH
same,"bioavailability, effect of food",[2],affected by the presence of food in the GI (Gastro-Intestinal) tract
